These are literature values, as cited in paper PMC6843717 (ACS Omega, 2019).

The conditions of the series: cited from earlier work; for bioavailability (F): reported for other anticancer drugs; for bioavailability: FDA-approved small molecules for advanced breast cancer.

As for `O=c1cc(CN2CCOCC2)occ1OCCCCCSc1ccnc2cc(C(F)(F)F)ccc12` [EHT1864], under “Rac inhibitor, plasma”, the T1/2 is 1.65 h.
For `CCn1c2ccccc2c2cc(Nc3ccnc(NCCCN4CCOCC4)n3)ccc21` [EHop-016], the “bioavailability (F)” value is 40%.
As usually defined, the bioavailability is dose-corrected exposure relative to a reference, in per cent. In the case of `CO[C@H]1C[C@@H]2CC[C@@H](C)[C@@](O)(O2)C(=O)C(=O)N2CCCC[C@H]2C(=O)O[C@H]([C@H](C)C[C@@H]2CC[C@@H](OCCO)[C@H](OC)C2)CC(=O)[C@H](C)/C=C(\C)[C@@H](O)[C@@H](OC)C(=O)[C@H](C)C[C@H](C)/C=C/C=C/C=C/1C` [everolimus], the bioavailability was around 5%.
`CS(=O)(=O)CCNCc1ccc(-c2ccc3ncnc(Nc4ccc(OCc5cccc(F)c5)c(Cl)c4)c3c2)o1` [lapatinib]: the “bioavailability (F)” value is listed as 43–50%.
As for `CC(=O)O[C@H]1C(=O)[C@@]2(C)[C@H]([C@H](OC(=O)c3ccccc3)[C@]3(O)C[C@H](OC(=O)[C@H](O)[C@@H](NC(=O)c4ccccc4)c4ccccc4)C(C)=C1C3(C)C)[C@]1(OC(C)=O)CO[C@@H]1C[C@@H]2O` [paclitaxel], the bioavailability was around 11%.
